Legend:
[1] = system: MSU-induced knee joint edema; test: MSU-induced knee joint edema in mice; assay type: in vivo, mouse; settings: 20 h
Method: 2,4-D, isolated and purified from Chloranthus spicatus (purity≥98%), was purchased from BOC Science (Shirley, NY). Colchicine (CLC) (purity≥96%) and dexamethasone (DEX) (purity≥98%) were purchased from Sigma. Mice (six per group) were treated with 2,4-D (100 mg/kg or 20 mg/kg, i.p.), CLC (1 mg/kg or 0.2 mg/kg, i.p.), DEX (0.5 mg/kg or 0.1 mg/kg, i.p.), or vehicle (20% polyoxyethylenesorbitan monooleate (Tween 80) plus PBS) 30 min before intra-articular stimulus with MSU (100 μg/10 μL, i.a.). Six mice with intra-articular injection with PBS alone served as a negative control.
Preparation of monosodium urate crystal (MSU). MSU crystals were prepared as described previously (Ruiz-Miyazawa et al., 2017). Briefly, 800 mg of monosodium urate was dissolved in 155 ml of boiling milli-Q water containing 2N NaOH. After pH adjustment to 8.9, the solution was cooled gradually by stirring at room temperature and crystallized overnight at 4° C. Crystals were collected, and centrifuged at 3,000×g for 2 min at 4° C. The crystals were evaporated and sterilized by heating at 180° C. for 2 h and stored in a sterile environment until use. The load of endotoxin present in the MSU crystals was determined using a ToxinSensor^TM Single Test Kit (GenScript).
Induction of MSU-Induced Knee Joint Inflammation. Male ICR (CD-1) mice (35-45 g, 10-12 weeks) were purchased from VitalRiver Inc (Beijing, China) and were kept in an animal care facility under controlled temperature of 21±1° C., humidity, and on a light/dark cycle, with ad libitum access to water and standard laboratory chow diet. Animal care and handling procedures were approved by the Animal Ethics Committee of GZUCM (Guangzhou University of Chinese Medicine). All efforts were made to minimize animal suffering and to reduce the number of animals used. Joint inflammation was induced by the intra-articular (i.a.) administration of MSU (200 μg/20 μl) into the right and left knee joints of mice under inhaled 3% isoflurane anesthesia. Control animals received an injection (i.a.) of sterile PBS (20 μL).
Evaluation of Knee Joint Edema. Knee joint edema was determined with a caliper (Mitutoyo) before (zero time), and after the intra-articular injection with MSU at the times indicated. Knee joint edema was determined for each mouse by the difference between the time points indicated on figures and the zero time (Ruiz-Miyazawa et al, 2017). The edema value is represented as Amm/joint.
Statistical Analysis. Data were analyzed using GraphPad Prism statistical software (GraphPad Software, Inc., United States-500.288, version 5.0). Results are presented as means±SEM or SD of measurements made on 6 mice per group, with statistical significance determined by two-way ANOVA, comparing each group to the control (“Model”) group. For in vitro experiments, microassays were performed in quadruplicate. p<0.05 was considered significant (*p<0.05, **p<0.01, ***p<0.001).

[2] = system: laser-induced choroidal neovascularization (CNV); test: Laser-induced CNV in rats, fluorescein angiography leakage grading; assay type: in vivo, rat; settings: 14 days, intravitreous injection
Method: Animals. All experiments were performed in accordance with the European Communities Council Directive 86/609/EEC and approved by local ethical committees (#2541-2015110210279792 v3). Six- to eight-week-old male Long Evans rats from the Janvier Breeding Center (Le Genest-Saint-Isle, France) were used to create a rat model of choroidal neovascularization (CNV) used as a model of human wet macular degeneration.
Laser-induced CNV. After anesthesia and dilation of the pupils, coverslips were positioned on the cornea as a contact glass. For rats, six or eight burns were performed 2 to 3 optic disc diameters away from the optic nerve with an Argon laser (532 nm) mounted on a slit lamp (175 mW, 0.1 s and 50 μm). Both eyes of animals received laser induction. The presence of a bubble witnessed the rupture of Bruch's membrane and confirmed a successful laser impact.
Treatments. After laser photocoagulation, rats were divided into 3 treatment groups: —Intravitreous injection (IVT) of 2,4-D (identified as “new treatment”, New T), —IVT of vehicle (PBS), —IVT of triamcinolone acetonide (Kenacort® 40 mg/ml; TA) (n=12 rats per group). The IVT consisted of 5 μl injected with a 31G needle mounted on a micro-thin (100 μl) syringe posterior to the limbus, avoiding the lens. IVT was performed immediately after laser had been performed. Animals were sacrificed at 7 days (n=6 per group- and at 16 days (n=6 per group).
Fluorescein angiography (FA). FA was performed 14 days after laser induction. […] Early and late phase angiograms were recorded 1-3 and 5-7 min respectively after fluorescein injection. […] Angiographic scores were established by 2 blinded observers according to the following criteria: grade 0, no hyper-fluorescence; grade 1, slight hyper-fluorescence with no increase in intensity nor in size; grade 2, hyper-fluorescence increasing in intensity but not in size; grade 3, hyper-fluorescence increasing both in intensity and size; grade 4, hyper-fluorescence size increase more than 2-diameter of the initial laser burn.

**Q.** `COc1cc(O)c(OC)c(O)c1C(=O)/C=C/c1ccccc1` [2,4-D, 2′,4′-dihydroxy-3′,6′-dimethoxychalcone] was tested. Which “reduction of MSU-induced knee joint edema” value ([1]; high dose i.p.: 2,4-D 100 mg/kg, CLC 1 mg/kg, DEX 0.5 mg/kg) did it give?
**A.** 68.4%

**Q.** What about the “reduction of MSU-induced knee joint edema” value ([1]; low dose i.p.: 2,4-D 20 mg/kg, DEX 0.1 mg/kg) of the same molecule?
**A.** 45.3%

**Q.** What about the “percentage of impact graded 0-1” value [2] of the same molecule?
**A.** 68%

**Q.** And the “percentage of impact in grade 3-4 (intense leakage)” value [2]?
**A.** 13%

**Q.** What about the “grading score of impacts compared to vehicle” value ([2]; Dunn's multiple comparison) of the same molecule?
**A.** significantly reduced
